Drawing on patent publication US9149538B2, “Oligomer conjugates of heteropentacyclic nucleosides” (priority 2008, dated 2015), this text covers EC50 and CC50 for 8 compounds.

Read-outs that look alike come from different tables or passages of the source.

One series relates to BVDV NADL. Nature of the series: Anti-Bovine Diarrhea Virus (surrogate Hepatitis C) cytoprotection assay (XTT) in MDBK cells. It is filed as cell-based, Bovine Viral Diarrhea virus. To be noted: inhibition of virus-induced cell killing, 100 μM high test concentration.
Series [1] deals with Influenza A/Hong Kong/8/68. Nature of the series: microbe, parasite or virus in culture. The series is classed as cell-based, influenza type A.
A further series has as its system MDBK cells. As to conditions: read-out: TC50, cells plus drug only, XTT.
A further series in a line: in vitro. As to conditions: dog.

Regarding `COCCOCCOCCNC(=N)c1ncn([C@@H]2O[C@H](CO)[C@@H](O)[C@H]2O)n1` [mPEG3-N-Ribamidine], the concentration for a half-maximal effect (EC50) with BVDV NADL is above 100 µM; in series [1] (read-out: EC50) it was 67.8 µM. Moreover, the CC50 in the series on MDCK cells and in the series with MDBK cells was above 100 µM each time.
`COCCOCCOCCOCCOCCOCCOCCN(CCOCCOCCOCCOCCOCCOCCOC)C(=O)c1ncn([C@@H]2O[C@H](CO)[C@@H](O)[C@H]2O)n1` [Di-mPEG7-N-Ribavirin]: the concentration for a half-maximal effect (EC50) (with BVDV NADL; in series [1] (read-out: EC50)) was above 100 µM in each case. Besides, the CC50 in the series with MDCK cells and with MDBK cells was above 100 µM each time.
Regarding `COCCOCCOCCOCCOCCN(CCOCCOCCOCCOCCOC)C(=O)c1ncn([C@@H]2O[C@H](CO)[C@@H](O)[C@H]2O)n1` [Di-mPEG5-N-Ribavirin], the EC50 in the series on BVDV NADL is above 100 µM; in series [1] (read-out: EC50) it was 5.5 µM. Also, the CC50 in the series on MDCK cells is 19.5 µM; in the series with MDBK cells it was above 100 µM.
Consider `COCCOCCOCCOCCOCCOCCNC(=N)c1ncn([C@@H]2O[C@H](CO)[C@@H](O)[C@H]2O)n1` [mPEG6-N-Ribamidine], for which the EC50 (in the series on BVDV NADL; in series [1] (read-out: EC50)) was above 100 µM each time. The CC50 was above 100 µM in the series with MDCK cells and 87.6 µM with MDBK cells.
Take `COCCOCCOCCOCCOCCNC(=O)c1ncn([C@@H]2O[C@H](CO)[C@@H](O)[C@H]2O)n1` [mPEG5-N-Ribavirin]: the EC50 (in the series on BVDV NADL; in series [1] (read-out: EC50)) was above 100 µM in each case. For the same compound, the CC50 with MDCK cells and in the series on MDBK cells was above 100 µM in each case.
In the case of `COCCOCCOCCOCCOCCOCCOCCNC(=N)c1ncn([C@@H]2O[C@H](CO)[C@@H](O)[C@H]2O)n1` [mPEG7-N-Ribamidine], the EC50 (in the series on BVDV NADL; in series [1] (read-out: EC50)) was above 100 µM throughout. In addition, the CC50 in the series on MDCK cells and with MDBK cells was above 100 µM throughout.
Take `NC(=O)c1ncn([C@@H]2O[C@H](CO)[C@@H](O)[C@H]2O)n1` [Ribavirin, ribavirin, reference compound]: the EC50 was 8.1 µM in the series with BVDV NADL (Bovine viral diarrhea virus isolates and strains, MDBK); 5.2 µM in the series on BVDV NADL; 16.3 µM in series [1]; 18.2 µM in series [1] (Influenza A virus, MDCK). The CC50 in the series on MDCK cells (dog) came to 79 µM; in the series “in vitro” (TC50) it was 50 µM.
For `NC12CC3CC(CC(C3)C1)C2` [Amantadine, amantadine, reference compound], in series [1] (Influenza A virus, MDCK, MDCK/Influenza A/Hong Kong/8/68, inhibition of virus-induced cell killing, XTT, 100 μM high test concentration, read-out: EC50), the EC50 came out at 0.1 µM. In the series “in vitro” (TC50, MDCK cells, cells plus drug only, XTT), the CC50 is above 10 µM.
